From the OPERA property sets (Mansouri et al. 2018)

conditions: not given

Compound | boiling point | melting point | log10 Koc (L/kg) | log10 Henry constant (atm·m³/mol) | log10 Koa | log10 vapour pressure (mmHg) | ready biodegradability | log10 biodegradation half-life (days)
COC(=O)c1cccc(O)c1 | 281 °C | 73 °C |  |  |  |  |  | 
CCCC(=O)OC(C)C | 130 °C |  |  |  |  |  |  | 
CCCCCCNC(=O)COC(=O)c1ccccc1 |  | 130 °C |  |  |  |  |  | 
CCC(=O)N(C)C | 174 °C | -45 °C |  |  |  |  |  | 
COc1ccc(/C=C/NC=O)cc1 |  | 132 °C |  |  |  |  |  | 
C#C[C@]1(O)CC[C@H]2[C@@H]3CCc4cc(OC)ccc4[C@H]3CC[C@@]21C |  | 150 °C |  |  |  |  |  | 
CCOC(=O)C(=O)c1ccccc1 | 256 °C |  |  |  |  |  |  | 
NC(=O)c1cccnc1 |  | 130 °C |  |  |  |  |  | 
O=C(O)c1c(Cl)c(Cl)c(Cl)c(Cl)c1C(=O)O |  |  | 3.3 |  |  |  |  | 
Clc1ccc(Cl)c(-c2c(Cl)ccc(Cl)c2Cl)c1 |  |  | 5.55 | -3.92 | 8.79 |  |  | 
COc1cc(OC)cc(OC)c1 | 256 °C | 54.5 °C |  |  |  |  |  | 
CC(C)=O | 55.8 °C | -96.5 °C |  | -4.46 | 2.31 | 2.36 | readily biodegradable | 
Nc1ccc(Cc2ccc(N)cc2)cc1 | 398 °C | 92.5 °C | 1.99 |  |  |  | not readily biodegradable | 
CC(C)(C)OOC(=O)c1ccccc1 |  | 8 °C |  |  |  |  | not readily biodegradable | 
N=C(N)NC(=N)N |  | 136 °C |  |  |  |  |  | 
O=C(O)CSCC(=O)O |  | 129 °C |  |  |  |  |  | 
C=C[Si](C)(C)Cl | 83.5 °C |  |  |  |  |  |  | 
CN=C=S | 119 °C | 36 °C | 0.97 |  |  | 0.549 | not readily biodegradable | 
BrCCI | 163 °C | 28 °C |  |  |  |  |  | 
O=C(O)CNc1ccccc1 |  | 128 °C |  |  |  |  |  | 
COc1cccc2ccccc12 | 269 °C |  |  |  |  |  | not readily biodegradable | 
Brc1ccc(Sc2ccc(Br)cc2)cc1 | 268 °C | 115 °C |  |  |  |  |  | 
Cc1ccc(S(=O)(=O)c2ccc(C)cc2)cc1 | 406 °C | 159 °C |  |  |  |  |  | 
CCCC(=O)Cl | 102 °C | -89 °C |  |  |  |  |  | 
COCC(O)COC | 169 °C |  |  |  |  |  |  | 
CN(C)C(CSC(N)=O)CSC(N)=O |  |  |  |  |  |  | not readily biodegradable | 

Compound | boiling point | melting point | log10 Koc (L/kg) | log10 Henry constant (atm·m³/mol) | log10 Koa | log10 vapour pressure (mmHg) | ready biodegradability | log10 biodegradation half-life (days)
O=C(O)CCC(=O)C(=O)O |  | 116 °C |  |  |  |  |  | 
Cl.NCCc1ccc(O)cc1 |  | 272 °C |  |  |  |  |  | 
Clc1ccc(-c2cc(Cl)ccc2Cl)cc1 |  |  |  | -3.72 | 7.92 | -3.4 |  | 
C=CC(C)(O)CC(C)C (configuration not stated) | 146 °C |  |  |  |  |  |  | 
O=C(O)C(F)(F)C(F)(F)C(F)(F)F | 121 °C | -17.5 °C |  |  |  | 0.804 |  | 
CC(C)c1ccccc1Cl | 191 °C | -74.4 °C |  |  |  |  |  | 
NC(=O)Nc1ccc(Br)cc1 | 260 °C | 226 °C | 2.06 |  |  |  |  | 
CC(Br)C(C)Br (configuration not stated) | 161 °C | -24 °C |  |  |  | 0.58 |  | 
C[C@]12CCC(=O)C[C@@H]1CC[C@@H]1[C@@H]2CC[C@@]2(C)[C@H]1CC[C@]2(C)O |  | 192 °C |  |  |  |  |  | 
O=C1OCCO1 | 248 °C | 39.5 °C |  |  |  | -2.01 | readily biodegradable | 
Cc1cccc(Br)c1C | 214 °C |  |  |  |  |  |  | 
ClC1(Cl)CCCCC1 | 171 °C | -47 °C |  |  |  |  |  | 
CC(C)OC(=O)[C@H](C)N(C(=O)c1ccccc1)c1ccc(F)c(Cl)c1 |  | 78.5 °C |  |  |  |  |  | 
CCCC[N+](=O)[O-] | 153 °C | -81.3 °C |  |  |  | 0.579 |  | 
CCOC(=O)NP(=O)(N1CC1)N1CC1 |  | 89 °C |  |  |  |  |  | 
CS(=O)(=O)c1ccc(-c2cn3ccccc3n2)cc1 |  | 243 °C |  |  |  |  |  | 
O=[N+]([O-])c1ccc(O)cc1C(F)(F)F |  | 76 °C | 2.11 |  |  |  |  | 
COc1cc(O)cc(O)c1 |  | 80.3 °C |  |  |  |  |  | 
CCOC(=O)C=CC(=O)O |  | 70 °C |  |  |  |  |  | 
OCc1c[nH]c2ccccc12 |  | 97.5 °C |  |  |  |  |  | 
C#CC(=O)O |  | 9 °C |  |  |  |  |  | 
CCCc1ccccc1C | 185 °C | -60.3 °C |  |  |  | -0.0027 |  | 0.477
COP(=S)(OC)Oc1ccc([N+](=O)[O-])c(Cl)c1 |  | 21 °C |  |  |  | -5.4 |  | 
Brc1cc2c(cc1Br)Oc1ccccc1O2 |  | 158 °C |  |  |  | -5.92 |  | 
CC=C(C)C(C)C |  |  |  |  |  | 1.83 |  | 
CCCC[N+](CCCC)(CCCC)CCCC.[I-] |  | 148 °C |  |  |  |  |  | 

Compound | boiling point | melting point | log10 Koc (L/kg) | log10 Henry constant (atm·m³/mol) | log10 Koa | log10 vapour pressure (mmHg) | ready biodegradability | log10 biodegradation half-life (days)
C=C[Si](C=C)(C=C)C=C | 130 °C |  |  |  |  |  |  | 
COc1ccc(Cl)nn1 |  | 84.5 °C |  |  |  |  |  | 
CN1CCC(N(Cc2ccccc2)c2ccccc2)CC1 |  | 115 °C |  |  |  |  |  | 
O=S(=O)(Cl)c1cccc2ccccc12 |  | 68 °C |  |  |  |  |  | 
CCc1cccc(C(C)=O)c1 |  | -20 °C |  |  |  | 0.357 |  | 
Cc1cn([C@H]2CC[C@@H](CO)O2)c(=O)[nH]c1=O |  | 156 °C |  |  |  |  |  | 
Oc1cc(Cl)ccc1Cl | 211 °C | 59 °C |  |  |  | -1.25 | not readily biodegradable | 
C[C@@H]1O[C@@H](Oc2c(-c3ccc(O)c(O)c3)oc3cc(O)cc(O)c3c2=O)[C@H](O)[C@H](O)[C@H]1O |  | 170 °C |  |  |  |  |  | 
CC#CCCO | 154 °C |  |  |  |  |  |  | 
NC(=O)COc1ccccc1 |  | 102 °C |  |  |  |  |  | 
O=[N+]([O-])c1cc(F)cc(F)c1 | 176 °C | 17 °C |  |  |  |  |  | 
N#CCCCl | 176 °C | -51 °C |  |  |  |  |  | 
CCOc1ccc(C)cc1 | 188 °C |  |  |  |  |  |  | 
CCOc1ccc(Cl)cc1 | 213 °C | 21 °C |  |  |  |  |  | 
CCCCCCCCCC[N+](C)(C)Cc1ccccc1 |  |  |  |  |  |  | not readily biodegradable | 
CN(C)P(=O)(OP(=O)(N(C)C)N(C)C)N(C)C |  | 17 °C |  |  |  | -3 |  | 
CC(C)COC(=O)c1ccccc1C(=O)OCC(C)C | 296 °C |  | 3.14 |  |  |  | not readily biodegradable | 
CC(=O)C(C)O (configuration not stated) | 143 °C | 15 °C |  |  |  |  |  | 
CC(C)C(=O)OC(=O)C(C)C | 183 °C | -53.5 °C |  |  |  |  |  | 
O=C(O)c1cccc(Cl)c1[N+](=O)[O-] |  | 238 °C |  |  |  |  |  | 
COC(=O)c1ccc(C(=O)OC)cc1 | 288 °C | 141 °C |  |  |  | -2 | readily biodegradable | 
CC1(C)OC(=O)NC1=O |  | 76.5 °C |  |  |  |  |  | 
CCOCCCl | 108 °C |  |  |  |  |  |  | 
CC1(C)COC(C)(C)C1 | 121 °C |  |  |  |  |  |  | 
c1ccc(N(c2ccccc2)c2ccccc2)cc1 | 365 °C | 127 °C | 2.26 |  |  |  |  | 
FC(C(F)(F)F)C(F)(F)F | -17.3 °C | -127 °C |  |  |  | 3.53 |  | 

Compound | boiling point | melting point | log10 Koc (L/kg) | log10 Henry constant (atm·m³/mol) | log10 Koa | log10 vapour pressure (mmHg) | ready biodegradability | log10 biodegradation half-life (days)
CCCCCCCCC=O | 191 °C |  |  | -3.13 |  | -0.432 |  | 
CC(C)(C)C(=O)CC(=O)C(F)(F)C(F)(F)C(F)(F)F |  | 38 °C |  |  |  |  |  | 
CC(=O)c1ccc(C(C)C)cc1 | 254 °C |  |  |  |  |  |  | 
CC(=O)NCC(=O)O |  | 206 °C |  |  |  |  |  | 
O=C(O)CCCCl |  | 16 °C |  |  |  |  |  | 
O=c1n(CCO)c(=O)n(CCO)c(=O)n1CCO |  |  |  |  |  |  | not readily biodegradable | 
O=C(O)COc1c(F)c(F)c(F)c(F)c1F |  | 109 °C |  |  |  |  |  | 
Cc1cnc(C)cn1 | 155 °C | 15 °C |  |  |  |  |  | 
CCC(=O)OCCc1ccccc1 | 238 °C |  |  |  |  |  |  | 
CN(CCCN1c2ccccc2CCc2ccccc21)CC(=O)c1ccc(Cl)cc1 |  | 105 °C |  |  |  |  |  | 
Cc1cc(C(=O)C(F)(F)F)ccc1Cl |  |  |  |  |  |  | not readily biodegradable | 
COc1cccc(C)c1 | 176 °C | -47 °C |  |  |  |  |  | 
CC(=O)OCC(=O)[C@@]1(O)[C@@H](C)C[C@H]2[C@@H]3CCC4=CC(=O)C=C[C@]4(C)[C@@]3(F)[C@@H](O)C[C@@]21C |  | 248 °C |  |  |  |  |  | 
FC(F)=C(F)C(F)(F)C(F)(F)C(F)(F)C(F)(F)C(F)(F)F | 81 °C |  |  |  |  |  |  | 
CCCCCCC | 98.5 °C | -90.6 °C |  |  | 2.95 | 1.66 | readily biodegradable | 0.845
Ic1cccc(I)c1 | 285 °C | 40.4 °C |  |  |  |  |  | 
COc1cccc([N+](=O)[O-])c1 | 258 °C | 38.5 °C |  |  |  |  | not readily biodegradable | 
CC(=O)Oc1ccccc1C(=O)Oc1ccccc1 |  | 96 °C |  |  |  |  |  | 
O=c1c2cc(F)ccc2nc(-n2cncn2)n1-c1ccc(Cl)cc1Cl |  | 192 °C |  | -10.7 |  | -10.3 |  | 
CCCC/C=C\CCCCCCCCCC=O | 250 °C |  |  |  |  |  |  | 
O=C(O)c1c(F)cccc1F |  | 159 °C |  |  |  |  |  | 
Brc1ccc(-c2ccccc2)cc1 | 310 °C | 91.5 °C |  |  |  | -2.63 | readily biodegradable | 
ClC1=C(Cl)C2(Cl)C3C(Cl)C(Cl)CC3C1(Cl)C2(Cl)Cl (configuration not stated) |  | 106 °C | 4.78 | -3.53 |  | -4.69 | not readily biodegradable | 
CCCCOc1ccccc1 | 210 °C | -19.4 °C |  |  |  | -0.529 |  | 

same assay, conditions: fish

Compound | log10 BCF | log10 biotransformation half-life (days)
Nc1ccc(Cc2ccc(N)cc2)cc1 | 1.18 | 
COc1cccc2ccccc12 | 2.21 | 0.39
Clc1ccc(-c2cc(Cl)ccc2Cl)cc1 | 4.13 | 1.91
O=S(=O)([O][Na])c1ccc2cc(O)c(S(=O)(=O)[O][Na])cc2c1 | 0.3 | 
COP(=S)(OC)Oc1ccc([N+](=O)[O-])c(Cl)c1 | 1.55 | -0.47
Oc1cc(Cl)ccc1Cl | 1.01 | 
O=c1n(CCO)c(=O)n(CCO)c(=O)n1CCO | 0.2 | 
COc1cccc([N+](=O)[O-])c1 | 0.78 | -1.04
ClC1=C(Cl)C2(Cl)C3C(Cl)C(Cl)CC3C1(Cl)C2(Cl)Cl (configuration not stated) | 4.35 | 2.26
